Values joined by “and” are separate entries in the source; they are usually repeats but may differ in a detail not shown here. Identical values can stand only once.

Series [1] has as its system primary human fibroblast cells (ws1). Kind of series: Confocal imaging of Fe2+ with Rh6GD in ws1 cells. Format: cell-based. On the procedure: Human primary fibroblast ws1 cells were grown at 37° C. in a humid atmosphere of 5% CO2 atmosphere in eagle's minimum essential medium (EMEM, ATCC) supplemented with 10% fetal bovine serum (FBS, ATCC). Cultures were divided into 1:2 every 48 h to an approximate cell density of 1.21 million cells/ml and used for experiments after 24 h.
A Zeiss LSM 710 laser-scanning confocal microscope system was used for cell imaging experiments. 40× oil-immersion objective lens were used to perform all the experiments. For imaging with the Rh6GD sensor, excitation wavelength of the laser was 543 nm and emissions were collected over the range 545-625 nm. For images with MitoTracker Green FM, LysoTracker Deep Red, excitation wavelengths recommended by the manufacturer were 488 nm for MitoTracker, 633 nm for LysoTracker. Emissions were integrated at 492-535 nm (MitoTracker), 650-800 nm (LysoTracker), respectively.
Ws1 cells, at an approximately density of 1.2 million/ml in complete EMEM medium, were incubated with 100 μM ferrous ammonium sulfate (FAS, Fe (NH4)2(SO4)2 from a 10 mM stock solution) for overnight at 37° C. in a humid atmosphere of 5% CO2 and then the cells were washed with fresh EMEM medium to remove excess Fe^2+. Then cells were incubated with Rh6GD (10 μM, from 500 μM stock solution in DMF) at 37° C. for 30 min and then cells were washed with EMEM media and then imaged. In addition, some cells were treated firstly with 100 μM Fe^2+ overnight and then the cells were washed with fresh EMEM medium. For chelation experiments, Fe^2+-loaded cells or untreated cells were incubated with 1 mM 2,2′-bipyridyl (Bpy) at 37° C. for 30 min, then sensor was added followed by washing with the media, and then imaging was done. Controls were imaged without incubation with Fe^2+ or 2,2′-bipyridyl.
The ability of Rh6GD to detect Fe^2+ in primary human fibroblast cells (ws1) was investigated by using confocal microscopy. […] For Fe^2+ repleting conditions, live ws1 cells were incubated with 100 μM of ferrous ammonium sulfate (Fe (NH4)2(SO4)2) at 37° C. for overnight followed by washing with EMEM medium to remove excess Fe^2+ and then 10 μM of Rh6GD was added to the culture media and was incubated at 37° C. for 30 min. […] This fluorescent intensity is almost the same as that of cells without Fe^2+ or Bpy treatment (FIG. 34B).
To explore this, the distribution of exchangeable Fe^2+ pools in live ws1 cells were further investigated using Rh6GD, together with colocalization experiments using other dyes such as MitoTracker Green FM (a green fluorescent dye which localizes to mitochondria in live cells regardless of mitochondrial membrane potential) and LysoTracker Deep Red (a fluorescent dye that stains acidic compartments such as endosomes and lysosomes in live cells). […]

Series [2] in a line: Metal ion sensing: UV-vis and fluorescence response to Fe3+ and other metal ions. As to the method: The spectroscopic properties of Rh-PK and its interactions with various metal ions were evaluated in acetonitrile (ACN)/Tris-HCl buffer (10 mM, pH 7.3, v/v, 3:1). […] The changes in UV-Vis spectra after the addition of various ions are shown in FIG. 2, which is an absorbance spectrum of 100 μM sensor with various metal ions (100 μM for Ni^+2, Cu^+, Cu^+2, Zn^+2, Pb, Fe^+2, Fe^+3, Cr^+3, Hg^+2, Mn^+2, Ag^+, and Co^+2; 200 μM for K^+, Na^+, Ca^2+ and Mg^2+) in the ACN/Tris buffer (10 mM, pH 7.3, v/v 3:1).
When Fe^3+ was added into the solution of Rh-PK, a significant enhancement of fluorescence (>12-fold with 1.0 equiv of Fe^3+) was observed.
The interferences from the other metal ions with Rh-PK in its response to Fe^3+ was examined. […] Each of the 12 metal ions was pre-incubated with Rh-PK before 1 equiv. of Fe^3+ was added, the fluorescence response was then measured.
The stock solution of sensor and metal ions were prepared at the concentration of 1 mM. M. P. Walkees, Mutat. Res., 2003, 533, 107; M. Waisberg, et al., Toxicology, 2003, 192, 95.
The UV-vis. and fluorescence spectra of RhHPA to various possible interfering metal ions and its selectivity for Fe^3+ were examined. See FIG. 6, which is a plot of absorbance dependent on the concentration of Fe^3+ in the range from 0 to 2 equivalents in ACN/Tris-HCl buffer (10 mM, pH 7.3, v/v 2:1); FIG. 7, which is a Job's plot between Fe^3+ and RhHPA, indicating the 1:1 binding mode for sensor and iron(III). […] Addition of Na^+, K^+, Ca^2+, Mg^2+, Cr^3+, […], Hg^2+, Cu^2+, Pb^2+, Zn^2+, Fe^2+, Co^2+, Ni^2+, and Ag^+ exerted little or no effect on the emission of RhHPA, while remarkable fluorescence enhancement was detected upon the addition of Fe^3+ by excitation of the rhodamine fluorophore at 535 nm.
Experiments of iron(III) with other metal ions were investigated by means of the fluorescence response of RhHPA toward Fe^3+ in the presence of various other metal ions such as Na^+, K^+, Ca^2+, Mg^2+, Cr^3+, Hg^2+, Cu^2+, Pb^2+, Zn^2+, Fe^2+, Co^2+, Ni^2+, Cd^2+, and Ag^+. […] for Fe^3+ had no changes with addition of other metal ions. Cu(II) and Zn(II) increased the fluorescence intensity slightly.

The mark [3] stands for this setting: Rh-PK + Fe^3+, ACN/Tris-HCl buffer pH 7.3 v/v 3:1.

With `CCNc1cc2c(cc1C)C1(c3cc(C)c(NCC)cc3O2)c2ccccc2C(=O)N1/N=C/C=C/c1ccc(N(C)C)cc1` [Rh6GD, 2-(((1E,2E)-3-(4-(dimethylamino)phenyl)allylidene)amino)-3′,6′-bis(ethylamino)-2′,7′-dimethylspiro[isoindoline-1,9′-xanthen]-3-one], in series [1] (10 μM Rh6GD), the “fluorescence of cells with sensor only” value is reported as “weak fluorescence”. The “fluorescence of cells treated with Fe^2+ then Bpy” value in series [1] (100 μM Fe^2+ overnight, Bpy, 10 μM Rh6GD, versus Fe^2+ supplement) is “marked decrease in fluorescent intensity”. In addition, the “fluorescence of Fe^2+-treated cells versus unsupplemented” value in series [1] (100 μM ferrous ammonium sulfate overnight, then 10 μM Rh6GD 30 min) is given as “significant increase in fluorescent signals”. The “fluorescence of Bpy-treated cells” value in series [1] (Bpy, then 10 μM Rh6GD, versus sensor only) is “significantly decrease in fluorescence signal”.
Regarding `CCN(CC)c1ccc2c(c1)Oc1cc(N(CC)CC)ccc1C21c2ccccc2C(=O)N1CC/N=C(\C)c1cccc(C(C)=O)n1` [Rh-PK, (E)-2-(2-((1-(6-acetylpyridin-2-yl)ethylidene)amino)ethyl)-3′,6′-bis(diethylamino)spiro[isoindoline-1,9′-xanthen]-3-one], in series [2] (setting [3]), the Φ worked out at 0.173 and the “ε of absorption peak at 555 nm” value came to 3200 M⁻¹ cm⁻¹. Further, the “increase in fluorescence emission intensity” value in series [2] (one equivalent Fe^3+, ACN/Tris-HCl buffer pH 7.3) is ~12 fold and > 12 fold.

The values above are taken from patent publication US11685741B2, “Fluorescent probes” (University of Massachusetts, priority 2017, dated 2023).
